Experimental data from US20080139558A1, “QUINOLONES USEFUL AS INDUCIBLE NITRIC OXIDE SYNTHASE INHIBITORS” (KALYPSYS, INC., priority 2006, published 2008).
pEC50: −log10 of the molar value.

Target: T1, human iNOS (Homo sapiens, UniProt P35228)
T1 construct: expressed in transfected cells; host or cells: HEK293
Test: DAN assay of nitric oxide production (hiNOS)
Type: cell-based
Conditions: enzyme expressed in HEK293 cells transiently transfected with human iNOS
How it was run: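 Human iNOS transiently expressed in HEK293 cells; NO production quantified as nitrite via 2,3-diaminonaphthalene reaction forming fluorescent naphthotriazole.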

T1 sequence (P35228 whole entry): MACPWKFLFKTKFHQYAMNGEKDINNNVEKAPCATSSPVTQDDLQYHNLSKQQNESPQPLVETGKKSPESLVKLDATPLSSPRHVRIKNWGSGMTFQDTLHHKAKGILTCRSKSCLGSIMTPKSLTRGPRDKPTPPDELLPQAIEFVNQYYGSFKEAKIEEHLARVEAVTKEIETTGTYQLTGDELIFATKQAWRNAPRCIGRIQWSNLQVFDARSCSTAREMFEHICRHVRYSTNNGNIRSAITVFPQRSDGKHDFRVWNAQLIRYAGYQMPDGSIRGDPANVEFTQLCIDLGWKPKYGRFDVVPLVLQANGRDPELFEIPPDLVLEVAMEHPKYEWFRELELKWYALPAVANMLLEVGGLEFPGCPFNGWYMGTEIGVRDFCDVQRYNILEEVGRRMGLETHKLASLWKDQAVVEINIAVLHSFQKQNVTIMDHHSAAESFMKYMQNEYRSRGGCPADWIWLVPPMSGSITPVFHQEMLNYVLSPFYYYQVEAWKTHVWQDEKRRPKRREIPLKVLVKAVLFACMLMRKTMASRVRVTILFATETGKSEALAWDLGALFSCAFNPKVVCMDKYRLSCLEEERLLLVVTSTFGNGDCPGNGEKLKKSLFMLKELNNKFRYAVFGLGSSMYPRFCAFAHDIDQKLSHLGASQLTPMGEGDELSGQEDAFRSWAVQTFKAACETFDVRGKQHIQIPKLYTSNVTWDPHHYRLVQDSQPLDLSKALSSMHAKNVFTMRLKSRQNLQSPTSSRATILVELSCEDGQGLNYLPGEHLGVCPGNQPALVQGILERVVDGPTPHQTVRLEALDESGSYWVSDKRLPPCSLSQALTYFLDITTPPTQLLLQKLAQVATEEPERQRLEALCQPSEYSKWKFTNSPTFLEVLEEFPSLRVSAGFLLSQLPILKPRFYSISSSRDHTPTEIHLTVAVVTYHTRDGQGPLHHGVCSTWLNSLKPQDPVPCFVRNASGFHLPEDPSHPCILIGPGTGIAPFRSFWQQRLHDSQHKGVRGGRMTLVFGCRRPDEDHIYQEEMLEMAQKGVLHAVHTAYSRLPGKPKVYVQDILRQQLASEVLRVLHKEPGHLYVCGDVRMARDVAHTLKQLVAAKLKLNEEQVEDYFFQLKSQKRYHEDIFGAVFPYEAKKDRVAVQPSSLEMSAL

SMILES | pEC50
Cc1ncsc1C(=O)N(Cc1cc(=O)[nH]c2c(F)c(F)ccc12)C1CC1 [Example 86, N-Cyclopropyl-N-((7,8-fluoro-2-oxo-1,2-dihydroquinolin-4-yl)methyl)-4-methylthiazole-5-carboxamide] | < 5.30
Cc1ncsc1C(=O)N(Cc1cc(=O)[nH]c2c(F)cccc12)C1CC1 [Example 87, N-Cyclopropyl-N-((8-fluoro-2-oxo-1,2-dihydroquinolin-4-yl)methyl)-4-methylthiazole-5-carboxamide] | < 5.30
Cc1nc(N2CCN(C)CC2)sc1C(=O)N(Cc1cc(=O)[nH]c2ccccc12)c1ccccc1 [Example 102, 4-Methyl-2-(4-methylpiperazin-1-yl)-N-((2-oxo-1,2-dihydroquinolin-4-yl)methyl)-N-phenylthiazole-5-carboxamide] | < 5.30
Cc1ccc2[nH]c(=O)c(CN(Cc3ccccc3)c3ccc(C#N)cn3)cc2c1 [Example 103, 6-(Benzyl((6-methyl-2-oxo-1,2-dihydroquinolin-3-yl)methyl)amino)nicotinonitrile] | < 5.30
Cc1ncsc1CN(C(=O)c1cc(=O)[nH]c2c(F)cccc12)c1ccc(F)c(Cl)c1 [Example 104, N-(3-Chloro-4-fluorophenyl)-8-fluoro-N-((4-methylthiazol-5-yl)methyl)-2-oxo-1,2-dihydroquinoline-4-carboxamide] | < 5.30
O=C(c1cc(=O)[nH]c2c(F)cccc12)N(Cc1cscn1)c1cccc(Cl)c1 [Example 105, N-(3-Chlorophenyl)-8-fluoro-2-oxo-N-(thiazol-4-ylmethyl)-1,2-dihydroquinoline-4-carboxamide] | < 5.30
O=c1cc(CN2CCN(c3ccccc3F)CC2)c2ccccc2[nH]1 [Example 106, 4-((4-(2-Fluorophenyl)piperazin-1-yl)methyl)quinolin-2(1H)-one] | < 5.30
Cc1ncsc1C(=O)N(Cc1cc(=O)[nH]c2c(Br)ccc(F)c12)c1cccc(Cl)c1 [Example 107, N-((8-Bromo-5-fluoro-2-oxo-1,2-dihydroquinolin-4-yl)methyl)-N-(3-chlorophenyl)-4-methylthiazole-5-carboxamide] | < 5.30
Cc1ncsc1C(=O)N(Cc1cc(=O)[nH]c2cc(F)c(F)cc12)c1cccc(Cl)c1 [Example 109, N-(3-Chlorophenyl)-N-((6,7-difluoro-2-oxo-1,2-dihydroquinolin-4-yl)methyl)-4-methylthiazole-5-carboxamide] | ≥ 5.30
Cc1nnsc1C(=O)N(Cc1cc(=O)[nH]c2c(F)c(F)ccc12)c1cccc(Cl)c1 [Example 110, N-(3-Chlorophenyl)-N-((7,8-difluoro-2-oxo-1,2-dihydroquinolin-4-yl)methyl)-4-methyl-1,2,3-thiadiazole-5-carboxamide] | ≥ 5.30
Cc1ncsc1C(=O)N(Cc1cc(=O)[nH]c2cccc(F)c12)c1cccc(Cl)c1 [Example 111, N-(3-Chlorophenyl)-N-((5-fluoro-2-oxo-1,2-dihydroquinolin-4-yl)methyl)-4-methylthiazole-5-carboxamide] | ≥ 5.30
Cn1nccc1C(=O)N(Cc1cc(=O)[nH]c2c(F)c(F)ccc12)c1cccc(Cl)c1 [Example 112, N-(3-Chlorophenyl)-N-((7,8-difluoro-2-oxo-1,2-dihydroquinolin-4-yl)methyl)-1-methyl-1H-pyrazole-5-carboxamide] | < 5.30
Cc1ccncc1C(=O)N(Cc1c(F)c(=O)[nH]c2c(F)cccc12)c1cccc(Cl)c1 [Example 114, N-(3-Chlorophenyl)-N-((3,8-difluoro-2-oxo-1,2-dihydroquinolin-4-yl)methyl)-4-methylnicotinamide] | ≥ 5.30
Cc1ncsc1C(=O)N(Cc1c(F)c(=O)[nH]c2c(F)c(F)ccc12)c1cccc(Cl)c1 [Example 115, N-(3-Chlorophenyl)-4-methyl-N-((3,7,8-trifluoro-2-oxo-1,2-dihydroquinolin-4-yl)methyl)thiazole-5-carboxamide] | ≥ 5.30
Cc1ccncc1C(=O)N(Cc1c(F)c(=O)[nH]c2c(F)c(F)ccc12)c1cccc(Cl)c1 [Example 116, N-(3-Chlorophenyl)-4-methyl-N-((3,7,8-trifluoro-2-oxo-1,2-dihydroquinolin-4-yl)methyl)nicotinamide] | ≥ 5.30
Cc1ncsc1C(=O)N(Cc1cc(=O)n(C)c2c(F)cccc12)c1cccc(Cl)c1 [Example 117, N-(3-Chlorophenyl)-N-((8-fluoro-1-methyl-2-oxo-1,2-dihydroquinolin-4-yl)methyl)-4-methylthiazole-5-carboxamide] | < 5.30
O=c1cc(Cn2c(-c3cccnc3)nc3ccccc32)c2cccc(F)c2[nH]1 [Example 118, 8-Fluoro-4-((2-(pyridin-3-yl)-1H-benzo[d]imidazol-1-yl)methyl)quinolin-2(1H)-one] | < 5.30
Cc1ncsc1-c1nc2ccccc2n1Cc1cc(=O)[nH]c2c(F)c(F)ccc12 [Example 119, 7,8-Difluoro-4-((2-(4-methylthiazol-5-yl)-1H-benzo[d]imidazol-1-yl)methyl)quinolin-2(1H)-one] | ≥ 5.30
O=c1cc(Cn2c(-c3cccnc3)nc3ccccc32)c2ccc(F)c(F)c2[nH]1 [Example 120, 7,8-Difluoro-4-((2-(pyridin-3-yl)-1H-benzo[d]imidazol-1-yl)methyl)quinolin-2(1H)-one] | < 5.30
Cc1ccncc1-c1nc2ccccc2n1Cc1cc(=O)[nH]c2c(F)c(F)ccc12 [Example 121, 7,8-Difluoro-4-((2-(4-methylpyridin-3-yl)-1H-benzo[d]imidazol-1-yl)methyl)quinolin-2(1H)-one] | < 5.30
Cn1cncc1-c1nc2ccccc2n1Cc1cc(=O)[nH]c2c(F)c(F)ccc12 [Example 122, 7,8-Difluoro-4-((2-(1-methyl-1H-imidazol-5-yl)-1H-benzo[d]imidazol-1-yl)methyl)quinolin-2(1H)-one] | ≥ 5.30
Cc1ncsc1-c1nc2ccccc2n1Cc1cc(=O)[nH]c2ccccc12 [Example 124, 4-((2-(4-Methylthiazol-5-yl)-1H-benzo[d]imidazol-1-yl)methyl)quinolin-2(1H)-one] | ≥ 5.30
O=c1cc(Cn2c(-c3cccnc3)nc3ccccc32)c2ccccc2[nH]1 [Example 125, 4-((2-(Pyridin-3-yl)-1H-benzo[d]imidazol-1-yl)methyl)quinolin-2(1H)-one] | < 5.30

The next lines start with the values.

pEC50 | SMILES
≥ 5.30 | Cc1ncsc1C(=O)N(Cc1cc(=O)[nH]c2c(F)c(F)ccc12)c1cc(Cl)ccc1F [Example 88, N-(3-Chloro-6-fluorophenyl)-N-((7,8-fluoro-2-oxo-1,2-dihydroquinolin-4-yl)methyl)-4-methylthiazole-5-carboxamide]
≥ 5.30 | Cc1ncsc1C(=O)N(Cc1cc(=O)[nH]c2c(F)c(F)ccc12)c1cc(F)cc(Cl)c1 [Example 89]
≥ 5.30 | Cc1ncsc1C(=O)N(Cc1cc(=O)[nH]c2c(F)c(F)ccc12)c1ccccc1F [Example 90, N-(2-Fluorophenyl)-N-((7,8-fluoro-2-oxo-1,2-dihydroquinolin-4-yl)methyl)-4-methylthiazole-5-carboxamide]
≥ 5.30 | Cc1ncsc1C(=O)N(Cc1cc(=O)[nH]c2c(F)cccc12)c1ccc(F)c(F)c1 [Example 92, N-(3,4-Difluorophenyl)-N-((8-fluoro-2-oxo-1,2-dihydroquinolin-4-yl)methyl)-4-methylthiazole-5-carboxamide]
≥ 5.30 | Cc1cccc(N(Cc2cc(=O)[nH]c3c(F)cccc23)C(=O)c2scnc2C)c1 [Example 93, N-(3-Methylphenyl)-N-((8-fluoro-2-oxo-1,2-dihydroquinolin-4-yl)methyl)-4-methylthiazole-5-carboxamide]
≥ 5.30 | Cc1cccc(N(Cc2cc(=O)[nH]c3c(F)c(F)ccc23)C(=O)c2scnc2C)c1 [Example 94, N-(3-Methylphenyl)-N-((7,8-fluoro-2-oxo-1,2-dihydroquinolin-4-yl)methyl)-4-methylthiazole-5-carboxamide]
≥ 5.30 | Cc1ncsc1C(=O)N(Cc1cc(=O)[nH]c2c(F)cccc12)c1cccc(C#N)c1 [Example 95, N-(3-Cyanophenyl)-N-((8-fluoro-2-oxo-1,2-dihydroquinolin-4-yl)methyl)-4-methylthiazole-5-carboxamide]
≥ 5.30 | Cc1ncsc1C(=O)N(Cc1cc(=O)[nH]c2c(F)c(F)ccc12)c1cccc(Cl)c1F [Example 96, N-(3-Chloro-2-fluorophenyl)-N-((7,8-fluoro-2-oxo-1,2-dihydroquinolin-4-yl)methyl)-4-methylthiazole-5-carboxamide]
≥ 5.30 | Cc1ncsc1C(=O)N(Cc1cc(=O)[nH]c2c(F)cccc12)c1ccccc1 [Example 97, N-Phenyl-N-((8-fluoro-2-oxo-1,2-dihydroquinolin-4-yl)methyl)-4-methylthiazole-5-carboxamide]
≥ 5.30 | Cc1nc(N(C)C)sc1C(=O)N(Cc1cc(=O)[nH]c2c(F)cccc12)c1ccc(F)c(Cl)c1 [Example 98, N-(3-Chloro-4-fluorophenyl)-2-(dimethylamino)-N-((8-fluoro-2-oxo-1,2-dihydroquinolin-4-yl)methyl)-4-methylthiazole-5-carboxamide]
≥ 5.30 | Cc1nc(Br)sc1C(=O)N(Cc1cc(=O)[nH]c2ccccc12)c1ccccc1 [Example 99, 2-Bromo-4-methyl-N-((2-oxo-1,2-dihydroquinolin-4-yl)methyl)-N-phenylthiazole-5-carboxamide]
≥ 5.30 | Cc1nc(N(C)C)sc1C(=O)N(Cc1cc(=O)[nH]c2ccccc12)c1ccccc1 [Example 100, 2-(Dimethylamino)-4-methyl-N-((2-oxo-1,2-dihydroquinolin-4-yl)methyl)-N-phenylthiazole-5-carboxamide]
≥ 5.30 | Cc1nc(N2CCOCC2)sc1C(=O)N(Cc1cc(=O)[nH]c2ccccc12)c1ccccc1 [Example 101, 4-Methyl-2-morpholino-N-((2-oxo-1,2-dihydroquinolin-4-yl)methyl)-N-phenylthiazole-5-carboxamide]
≥ 5.30 | Cc1ncsc1C(=O)N(Cc1c(F)c(=O)[nH]c2c(F)cccc12)c1cccc(Cl)c1 [Example 108, N-(3-Chlorophenyl)-N-((3,8-difluoro-2-oxo-1,2-dihydroquinolin-4-yl)methyl)-4-methylthiazole-5-carboxamide]
